In US7709636B2, “Pyrazole sulfonylurea compound and herbicide” (Nissan Chemical Industries, Ltd., priority 2004, dated 2010):

Experiments:
Format in all cases: in vivo
Echinochloa crus-galli [1] = experiment: Herbicidal effect test in submerged condition by treatment before weed-generation (1); conditions: 0.64 g/a, water surface treated on day of sowing, 3 weeks after treatment
Method in brief: (§1)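 Pre-emergence water-surface application of diluted wettable-powder formulation at a predetermined rate, same day as sowing, in flooded alluvial soil (4 cm water) with transplanted 2.5-leaf rice. Grown 3 weeks at 25 to 30° C in greenhouse; rated 0–5 by herbicidal rate.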

Monochoria vaginalis [2] = experiment: as above; conditions: 0.64 g/a, water surface treated on day of sowing, 3 weeks after treatment
Method in brief: as §1

Scirpus juncoides [3] = experiment: as above; conditions: 0.64 g/a, water surface treated on day of sowing, 3 weeks after treatment
Method in brief: as §1

Echinochloa crus-galli [4] = experiment: Herbicidal effect test in submerged condition by treatment during weed-growth stage (1); conditions: 0.64 g/a, treated at 1st to 2nd leaf stage, 3 weeks after treatment
Method in brief: (§2)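 Paddy-soil pots flooded to 4 cm water depth were sown and grown in a greenhouse at 25 to 30° C until weeds reached 1st to 2nd leaf stage. A wettable powder diluted in water to a predetermined formulation amount was applied to the water surface. Herbicidal effect was scored 3 weeks after treatment against set criteria.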

Monochoria vaginalis [5] = experiment: as above; conditions: 0.64 g/a, treated at 1st to 2nd leaf stage, 3 weeks after treatment
Method in brief: as §2

Scirpus juncoides [6] = experiment: as above; conditions: 0.64 g/a, treated at 1st to 2nd leaf stage, 3 weeks after treatment
Method in brief: as §2

Abutilon avicennae = experiment: Herbicidal effect test by soil treatment; conditions: 1.6 g/a, 3 weeks after treatment
Method in brief: (§3)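 Pre-emergence soil application: wettable powder formulation, water-diluted to set dose, sprayed evenly over soil surface after sowing; seeds under ~1.5 cm sterilized diluvial soil. Effect rated at 3 wk by criteria scale.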

Amaranthus retroflexus = experiment: Herbicidal effect test by soil treatment; conditions: 1.6 g/a, 3 weeks after treatment
Method in brief: as §3

Ambrosia elatior = experiment: Herbicidal effect test by soil treatment; conditions: 1.6 g/a, 3 weeks after treatment
Method in brief: as §3

Avena fatua = experiment: Herbicidal effect test by soil treatment; conditions: 1.6 g/a, 3 weeks after treatment
Method in brief: as §3

Beta vulgaris (beet) = experiment: Herbicidal effect test by soil treatment; conditions: 1.6 g/a, 3 weeks after treatment
Method in brief: as §3

Black-grass = experiment: Herbicidal effect test by soil treatment; conditions: 1.6 g/a, 3 weeks after treatment
Method in brief: as §3

Chenopodium album = experiment: Herbicidal effect test by soil treatment; conditions: 1.6 g/a, 3 weeks after treatment
Method in brief: as §3

Digitaria adscendes = experiment: Herbicidal effect test by soil treatment; conditions: 1.6 g/a, 3 weeks after treatment
Method in brief: as §3

Echinochloa crus-galli [7] = experiment: Herbicidal effect test by soil treatment; conditions: 1.6 g/a, 3 weeks after treatment
Method in brief: as §3

Setaria viridis = experiment: Herbicidal effect test by soil treatment; conditions: 1.6 g/a, 3 weeks after treatment
Method in brief: as §3

[8] = system: Triticum aestivum (wheat); experiment: Herbicidal effect test by soil treatment; conditions: 1.6 g/a, 3 weeks after treatment
Method in brief: as §3

soybean (Glycine max) = experiment: Herbicidal effect test by soil treatment; conditions: 1.6 g/a, 3 weeks after treatment
Method in brief: as §3

## COc1cc(OC)nc(NC(=O)NS(=O)(=O)c2c(C3=NOCC(C)O3)c(Cl)nn2C)n1 (stereo not drawn) [Compound 1, N-((4,6-dimethoxypyrimidin-2-yl)aminocarbonyl)-3-chloro-1-methyl-4-(5-methyl-5H,6H-1,4,2-dioxadin-3-yl)pyrazole-5-sulfonamide]
Echinochloa crus-galli [1]
  herbicidal effect, A: Echinochloa crus-galli: 5 (Herbicidal rate 90% or more (almost complete death))
Monochoria vaginalis [2]
  herbicidal effect, C: Monochoria vaginalis: 5 (Herbicidal rate 90% or more (almost complete death))
Scirpus juncoides [3]
  herbicidal effect, B: Scirpus juncoides: 5 (Herbicidal rate 90% or more (almost complete death))
Echinochloa crus-galli [4]
  herbicidal effect, A: Echinochloa crus-galli: 5 (Herbicidal rate 90% or more (almost complete death))
Monochoria vaginalis [5]
  herbicidal effect, C: Monochoria vaginalis: 5 (Herbicidal rate 90% or more (almost complete death))
Scirpus juncoides [6]
  herbicidal effect, B: Scirpus juncoides: 5 (Herbicidal rate 90% or more (almost complete death))
Abutilon avicennae
  herbicidal effect, H: Abutilon avicennae: 4 (Herbicidal rate 70% or more and less than 90%)
Amaranthus retroflexus
  herbicidal effect, J: Amaranthus retroflexus: 5 (Herbicidal rate 90% or more (almost complete death))
Ambrosia elatior
  herbicidal effect, I: Ambrosia elatior: 5 (Herbicidal rate 90% or more (almost complete death))
Avena fatua
  herbicidal effect, F: Avena fatua: 0 (Herbicidal rate 5% or less (little effect))
Beta vulgaris (beet)
  herbicidal effect, f: Beta vulgaris (beet): 5 (Herbicidal rate 90% or more (almost complete death))
Black-grass
  herbicidal effect, G: Black-grass: 4 (Herbicidal rate 70% or more and less than 90%)
Chenopodium album
  herbicidal effect, K: Chenopodium album: 5 (Herbicidal rate 90% or more (almost complete death))
Digitaria adscendes
  herbicidal effect, D: Digitaria adscendes: 4 (Herbicidal rate 70% or more and less than 90%)
Echinochloa crus-galli [7]
  herbicidal effect, A: Echinochloa crus-galli: 2 (Herbicidal rate 20% or more and less than 40%)
Setaria viridis
  herbicidal effect, E: Setaria viridis: 1 (Herbicidal rate 5% or more and less than 20%)
[8]
  herbicidal effect, e: Triticum aestivum (wheat): 5 (Herbicidal rate 90% or more (almost complete death))
Soybean (Glycine max)
  herbicidal effect, c: soybean (Glycine max): 5 (Herbicidal rate 90% or more (almost complete death))
